Structures can show the parent of a compound that is named as a salt. Where two headings read alike, the source gives them in different places.
What was measured:
[1] = test system: human triple-negative breast cancer MDA-MB-231; assay: Anti-breast tumor activity, subcutaneously implanted MDA-MB-231 (Example 22); format: in vivo, BALB/c nude mice; details: Protocol I; 60 mg/kg iv
human colon cancer HT-29 = assay: Anti-colon cancer activity, subcutaneously implanted HT-29 (Example 23); format: in vivo, BALB/c nude mice; details: Protocol I; 60 mg/kg iv
[2] = test system: human triple-negative breast cancer cell line MDA-MB-231; assay: In vivo pharmacodynamic study on MDA-MB-231 tumor (Example 24); details: for Body weight increase compared with before administration: mouse, in vivo
Description: One week after the last administration, tumors were taken from all the mice and weighed.
The clinical symptoms observed during the experiment were recorded in the raw data. Tumor volume was calculated by the following formula: […]
Relative tumor proliferation rate (T/C (%)) represents a ratio in percentage of relative tumor volumes or tumor weights of a treatment group and a control group at a time point, which was calculated by the following formula: […]
Relative tumor inhibition rate (TGI (%)) was calculated by the following formula: […]

[3] = test system: human colon cancer cell line HCT116; details: for RTV / Tumor Weight: D 43
Source text: One week after the last dose, tumors were taken from all mice, weighed, and photographed.

[4] = test system: human ovarian cancer cell line SKOV-3; details: for RTV / Tumor Weight: D 42
Source text: SKOV-3 tumor masses were subcutaneously inoculated to 80 BALB/c nude mice.

[5] = test system: human colon cancer cell line SW620; details: for RTV (D 41) / T/C (%) RTV / T/C (%) TW / Tumor Weight (mg) (D 41): D 41
[6] = test system: human colon cancer cell line SW620; assay: In vivo pharmacodynamic study in SW620 model (Example 34); details: 60 mg/kg iv QW × 4
tumor cells = details: Zhang et al. 2004; cited from earlier work
[7] = CPT-11 80 mg/kg iv QW × 4, 2 surviving animals

## CCc1c2c(nc3ccc(OC(=O)N4CCC(N5CCCCC5)CC4)cc13)-c1cc3c(c(=O)n1C2)COC(=O)[C@]3(O)CC [CPT-11, irinotecan hydrochloride]
[1]
  Tumor Inhibition Rate: 71%
Human colon cancer HT-29
  Tumor Inhibition Rate: 47%
[2]; CPT-11 60 mg/kg
  Animal death: No animal died
[2]; CPT-11 60 mg/kg iv QW × 3
  T/C (%) RTV: 24%
  T/C (%) TW: 28%
[2]; CPT-11 60 mg/kg iv QW × 3, D33
  RTV: 4.59 ± 1.04
[2]; CPT-11 80 mg/kg iv QW × 3
  T/C (%) RTV: 13%
  T/C (%) TW: 16%
[2]; CPT-11 80 mg/kg iv QW × 3, D33
  RTV: 2.46 ± 0.41
  Tumor Weight: 391 ± 143 mg
[2]; CPT-11 80 mg/kg, 7 animals
  Animal death: one animal died
[2]; 60 mg/kg
  Body weight increase compared with before administration: 2.41%
[2]; 80 mg/kg
  Body weight increase compared with before administration: 1.950%
[3]; CPT-11 60 mg/kg
  Reduction in body weight at the end of the experiment compared to before administration: 14.41%
[3]; CPT-11 60 mg/kg iv QW × 4
  T/C (%) RTV: 35%
  T/C (%) TW: 26%
  RTV: 4.42 ± 1.05
  Tumor Weight: 370 ± 87 mg
[3]; CPT-11 80 mg/kg
  Reduction in body weight at the end of the experiment compared to before administration: 16.00%
[3]; CPT-11 80 mg/kg iv QW × 4
  T/C (%) RTV: 16%
  T/C (%) TW: 12%
  RTV: 1.95 ± 0.31
  Tumor Weight: 173 ± 34 mg
[4]; CPT-11 60 mg/kg iv QW × 4
  T/C (%) RTV: 64%
  T/C (%) TW: 67%
  RTV: 9.20 ± 0.79
  Tumor Weight: 1179 ± 150 mg
[4]; CPT-11 80 mg/kg iv QW × 4
  T/C (%) RTV: 79%
  T/C (%) TW: 95%
[4]; [7]
  RTV: 11.44 ± 0.21
  Tumor Weight: 1664 ± 258 mg
[4]; CPT-11 80 mg/kg, 8 animals
  Animals died: 6
[4]; CPT-11 high dose (80 mg/kg), two living animals
  Body weight increase at the end of the experiment: 11.94%
[4]; CPT-11 low dose (60 mg/kg)
  Body weight increase at the end of the experiment: 6.97%
[5]; 60 mg/kg
  RTV (D 41): 4.69 ± 1.12
  T/C (%) RTV: 28%
  T/C (%) TW: 27%
  Tumor Weight (mg) (D 41): 465 ± 91 mg
[5]; 80 mg/kg
  RTV (D 41): 5.95 ± 1.22
  T/C (%) RTV: 36%
  T/C (%) TW: 28%
  Tumor Weight (mg) (D 41): 495 ± 91 mg
[5]; CPT-11 high dose (80 mg/kg)
  Body weight reduction at the end of the experiment compared with before administration: 5.810%
[5]; CPT-11 low dose (60 mg/kg)
  Body weight reduction at the end of the experiment compared with before administration: 0.99%
[6]
  T/C (%) TV: 8%
  T/C (%) TW: 7%
  TW (mg) (mean ± SEM): 99 ± 43 mg
[6]; Day 11
  Body Weight (g, mean ± SEM) Day 11: 18.5 ± 0.6 g
  TV (mm^3) Day 11 (mean ± SEM): 157 ± 18 mm^3
[6]; Day 39
  Body Weight (g, mean ± SEM) Day 39: 19.2 ± 0.7 g
  TV (mm^3) Day 39 (mean ± SEM): 154 ± 57 mm^3
[6]; Day 39 vs Day 11
  Body Weight Change (%): +3.8%

## CCc1c2c(nc3ccc(O)cc13)-c1cc3c(c(=O)n1C2)COC(=O)[C@]3(O)CC [SN-38, 7-ethyl-10-hydroxycamptothecin]
Tumor cells
  Efficacy on some tumor cells relative to CPT-11: 100-1000 times
